Experimental findings from patent publication US20160193216A1 (Nimbus Iris, Inc., priority 2012, published 2016) are described below.

Bounds are passed on as bounds.

For the assay, the target named is T1, IRAK4 (Homo sapiens, UniProt Q9NWZ3).
T1 sequence (Q9NWZ3 1-460): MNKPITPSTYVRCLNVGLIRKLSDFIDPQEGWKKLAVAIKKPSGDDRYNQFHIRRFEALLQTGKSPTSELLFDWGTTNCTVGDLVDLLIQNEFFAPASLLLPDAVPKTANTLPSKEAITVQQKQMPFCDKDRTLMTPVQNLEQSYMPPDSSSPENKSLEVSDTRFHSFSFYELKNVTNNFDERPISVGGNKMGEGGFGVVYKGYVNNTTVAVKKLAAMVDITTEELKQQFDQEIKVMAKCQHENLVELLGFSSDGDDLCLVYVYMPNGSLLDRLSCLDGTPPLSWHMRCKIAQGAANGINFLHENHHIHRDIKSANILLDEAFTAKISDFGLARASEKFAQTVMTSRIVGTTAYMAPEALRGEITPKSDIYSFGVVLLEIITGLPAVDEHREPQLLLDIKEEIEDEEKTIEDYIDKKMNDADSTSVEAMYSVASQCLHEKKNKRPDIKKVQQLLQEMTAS
Briefly: IRAK-4 activity inhibition assay (Caliper). It is filed as biochemical. To be noted: 37 μM ATP, 3.5 nM IRAK4.
For the compound `CN(C)[C@H]1CC[C@H](Oc2ncnc3sc4c(c23)[C@@H](COCC(N)=O)CC4)CC1` [Compound I-76, 2-[[(3S)-12-[[4-(dimethylamino)cyclohexyl]oxy]-7-thia-9,11-diazatricyclo[6.4.0.0[2,6]]dodeca-1(8),2(6),9,11-tetraen-3-yl]methoxy]acetamide], the concentration for half-maximal inhibition (IC50) – broadly, the concentration that inhibits the measured activity by half – is below 5 µM.

For `CN[C@H]1CC[C@H](Oc2ncnc3sc4c(c23)CN(C(C)=O)CC4)CC1` [Compound I-202, 1-(3-[[4-(methylamino)cyclohexyl]oxy]-8-thia-4,6,12-triazatricyclo[7.4.0.0[2,7]]trideca-1 (9),2,4,6-tetraen-12-yl)ethan-1-one], the IC50 is 5 to 20 µM.

`NC(=O)[C@H]1CCc2sc3ncnc(O[C@H]4CC[C@H](N5CCC(F)(F)CC5)CC4)c3c2C1` [Compound I-236, (12S)-3-[[4-(4,4-difluoropiperidin-1-yl)cyclohexyl]oxy]-8-thia-4,6-diazatricyclo[7.4.0.0[2,7]]trideca-1(9),2(7),3,5-tetraene-12-carboxamide] gave an IC50 below 5 µM.

In the case of `CC[C@]1(N(C)C)CC[C@H](Oc2ncnc3sc4c(c23)[C@@H](C[C@H](C)O)CC4)CC1` [Compound I-103, (2S)-1-[(3R)-12-[[4-(dimethylamino)-4-ethylcyclohexyl]oxy]-7-thia-9,11-diazatricyclo[6.4.0.0[2,6]]dodeca-1(12),2(6),8,10-tetraen-3-yl]propan-2-ol], the IC50 fell in the range of 5 to 20 µM.

Take `NC(=O)C[C@H]1CCc2sc3ncnc(O[C@H]4CC[C@H](N5CCNCC5)CC4)c3c21` [Compound I-131, 2-[(3R)-12-[[4-(piperazin-1-yl)cyclohexyl]oxy]-7-thia-9,11-diazatricyclo[6.4.0.0[2,6]]dodeca-1(12),2(6),8,10-tetraen-3-yl]acetamide]: the 50% inhibitory concentration (IC50) was below 5 µM.

Regarding `CCC(O)[C@H]1CCc2sc3ncnc(O[C@H]4CC[C@H](N(C)C)CC4)c3c21` (stereo partly drawn) [Compound I-50, (S)-1-((S)-4-(((1r,4S)-4-(dimethylamino)cyclohexyl)oxy)-6,7-dihydro-5H-cyclopenta[4,5]thieno[2,3-d]pyrimidin-5-yl)propan-1-ol], the half-maximal inhibitory concentration (IC50) lay in the range of 5 to 20 µM.

On to `CN(C1COC1)[C@H]1CC[C@H](Oc2ncnc3sc4c(c23)[C@@H](CC(N)=O)CC4)CC1` [Compound I-129, 2-((R)-4-(((1r,4R)-4-(methyl(oxetan-3-yl)amino)cyclohexyl)oxy)-6,7-dihydro-5H-cyclopenta[4,5]thieno[2,3-d]pyrimidin-5-yl)acetamide], for which the IC50 was below 5 µM.

Consider `NC(=O)C[C@H]1CCc2sc3ncnc(O[C@H]4CC[C@H](N5CC6(COC6)C5)CC4)c3c21` [Compound I-152, 2-[(3R)-12-[(4-[2-oxa-6-azaspiro[3.3]heptan-6-yl]cyclohexyl)oxy]-7-thia-9,11-diazatricyclo[6.4.0.0[2,6]]dodeca-1(8),2(6),9,11-tetraen-3-yl]acetamide], for which the IC50 was below 5 µM.

`CCNC(=O)CC1CCc2sc3ncnc(N[C@H]4CC[C@H](N(C)C)CC4)c3c21` (stereo partly drawn) [Compound I-23, 2-(12-[[4-(dimethylamino)cyclohexyl]amino]-7-thia-9,11-diazatricyclo[6.4.0.0̂[2,6]]dodeca-1(8),2(6),9,11-tetraen-3-yl)-N-ethylacetamide] registered a concentration for half-maximal inhibition (IC50) of 5 to 20 µM.

Take `CN1Cc2sc3ncnc(O[C@H]4CC[C@H](N5CCOCC5)CC4)c3c2C1` [Compound I-196, 4-methyl-12-[[4-(morpholin-4-yl)cyclohexyl]oxy]-7-thia-4,9,11-triazatricyclo[6.4.0.0[2,6]]dodeca-1(12),2(6),8, 10-tetraene]: the IC50 is 5 to 20 µM.

In the case of `CC1(C)Cc2c(sc3ncnc(O[C@H]4CC[C@H](N5CCOCC5)CC4)c23)CO1` [Compound I-193, 12,12-dimethyl-3-[[4-(morpholin-4-yl)cyclohexyl]oxy]-11-oxa-8-thia-4,6-diazatricyclo[7.4.0.0[2,7]]trideca-1(9),2(7),3,5-tetraene], the IC50 was below 5 µM.

`CN(C)[C@H]1CC[C@H](Oc2ncnc3sc4c(c23)[C@@H](CC(O)c2ncco2)CC4)CC1` (mixture of isomers) [Compound I-60, 2-[(3R)-12-[[4-(dimethylamino)cyclohexyl]oxy]-7-thia-9,11-diazatricyclo[6.4.0.0[2,6]]dodeca-1(8),2(6),9,11-tetraen-3-yl]-1-(1,3-oxazol-2-yl)ethan-1-ol] had an IC50 below 5 µM.

Take `CC(=O)N1CCc2sc3ncnc(O[C@H]4CC[C@H](N5CCOCC5)CC4)c3c2C1` [Compound I-171, 1-(3-[[4-(morpholin-4-yl)cyclohexyl]oxy]-8-thia-4,6,12-triazatricyclo[7.4.0.0[2,7]]trideca-1(9),2(7),3,5-tetraen-12-yl)ethan-1-one]: the half-maximal inhibitory concentration (IC50) was in the range of 5 to 20 µM.

For `C[C@@H](O)C[C@H]1CCc2sc3ncnc(O[C@H]4CC[C@H](N(C)C)CC4)c3c21` [Compound I-41, (2R)-1-[(3R)-12-[[4-(dimethylamino)cyclohexyl]oxy]-7-thia-9,11-diazatricyclo[6.4.0.0[2,6]]dodeca-1(8),2(6),9,11-tetraen-3-yl]propan-2-ol], the IC50 is below 5 µM.

`COCCN(C)[C@H]1CC[C@H](Oc2ncnc3sc4c(c23)[C@@H](CC(N)=O)CC4)CC1` [Compound I-130, 2-((R)-4-(((1r,4R)-4-((2-methoxyethyl)(methyl)amino)cyclohexyl)oxy)-6,7-dihydro-5H-cyclopenta[4,5]thieno[2,3-d]pyrimidin-5-yl)acetamide] showed a 50% inhibitory concentration (IC50) below 5 µM.

Consider `CN(C)[C@H]1CC[C@H](Oc2ncnc3sc4c(c23)[C@H](CCO)CC4)CC1` [Compound I-33, 2-[(3S)-12-[[4-(dimethylamino)cyclohexyl]oxy]-7-thia-9,11-diazatricyclo[6.4.0.0[2,6]]dodeca-1(12),2(6),8,10-tetraen-3-yl]ethan-1-ol], for which the half-inhibitory concentration (IC50) is below 5 µM.

`NC(=O)CC[C@H]1CCCc2sc3ncnc(O[C@H]4CC[C@H](N)CC4)c3c21` [Compound I-153, 3-((R)-4-(((1r,4R)-4-aminocyclohexyl)oxy)-5,6,7,8-tetrahydrobenzo[4,5]thieno[2,3-d]pyrimidin-5-yl)propanamide]: the 50% inhibitory concentration (IC50) was below 5 µM.

Regarding `CN(CCO)C(=O)C1CCc2sc3ncnc(N[C@H]4CC[C@H](N(C)C)CC4)c3c21` (stereo partly drawn) [Compound I-29, 12-[[4-(dimethylamino)cyclohexyl]amino]-N-(2-hydroxyethyl)-N-methyl-7-thia-9,11-diazatricyclo[6.4.0.0̂[2,6]]dodeca-1(12),2(6),8,10-tetraene-3-carboxamide], the IC50 is above 50 µM.

Compound `CN(C)[C@H]1CC[C@H](Oc2ncnc3sc4c(c23)CN(S(N)(=O)=O)CC4)CC1` [Compound I-238, 3-[[4-(dimethylamino)cyclohexyl]oxy]-8-thia-4,6, 12-triazatricyclo[7.4.0.0[2,7]]trideca-1(9),2(7),3,5-tetraene-12-sulfonamide] came in with a concentration for half-maximal inhibition (IC50) below 5 µM.

With `CCNC(=O)CC1CCc2sc3ncnc(O[C@H]4CC[C@H](N(C)C)CC4)c3c21` (stereo in doubt) [Compound I-35, 2-[(3S)-12-[[4-(dimethylamino)cyclohexyl]oxy]-7-thia-9,11-diazatricyclo[6.4.0.0[2,6]]dodeca-1(12),2(6),8,10-tetraen-3-yl]-N-ethylacetamide], the half-inhibitory concentration (IC50) is below 5 µM.

Take `CN(C)[C@H]1CC[C@H](Oc2ncnc3sc4c(c23)[C@@H](CCC(N)=O)CCC4)CC1` [Compound I-163, 3-((R)-4-(((1r,4R)-4-(dimethylamino)cyclohexyl)oxy)-5,6,7,8-tetrahydrobenzo[4,5]thieno[2,3-d]pyrimidin-5-yl)propanamide]: the IC50 is below 5 µM.

Turning to `CCS(=O)(=O)N1CCc2sc3ncnc(N[C@H]4CC[C@H](N5CCOCC5)CC4)c3c2C1` [Compound I-181, 12-(ethanesulfonyl)-N-[4-(morpholin-4-yl)cyclohexyl]-8-thia-4,6, 12-triazatricyclo[7.4.0.0[2,7]]trideca-1(9),2(7),3,5-tetraen-3-amine], the IC50 is 5 to 20 µM.

Turning to `CN(C)[C@H]1CC[C@H](Nc2ncnc3sc4c(c23)C(C(=O)NCCO)CC4)CC1` (stereo partly drawn) [Compound I-17, 12-[[4-(dimethylamino)cyclohexyl]amino]-N-(2-hydroxyethyl)-7-thia-9,11-diazatricyclo[6.4.0.0̂[2,6]]dodeca-1(12),2(6),8,10-tetraene-3-carboxamide], the half-inhibitory concentration (IC50) was below 5 µM.

For the compound `CN(C)[C@H]1CC[C@H](Oc2ncnc3sc4c(c23)[C@H](CC(=O)Nc2ccc(F)cn2)CC4)CC1` [Compound I-38, 2-[(3S)-12-[[4-(dimethylamino)cyclohexyl]oxy]-7-thia-9,11-diazatricyclo[6.4.0.0[2,6]]dodeca-1(8),2(6),9,11-tetraen-3-yl]-N-(5-fluoropyridin-2-yl)acetamide], the half-maximal inhibitory concentration (IC50) lay within 20 to 50 µM.

In turn, `CN(C)[C@H]1CC[C@H](Oc2ncnc3sc4c(c23)CC(CC(N)=O)CC4)CC1` (single isomer, unassigned) [Compound I-112] came in with a 50% inhibitory concentration (IC50) below 5 µM.

`CN(C)[C@H]1CC[C@H](Nc2ncnc3sc4c(c23)C(CC(=O)NCCO)CC4)CC1` (stereo partly drawn) [Compound I-26, 2-(12-[[4-(dimethylamino)cyclohexyl]amino]-7-thia-9,11-diazatricyclo[6.4.0.0̂[2,6]]dodeca-1(8),2(6),9,11-tetraen-3-yl)-N-(2-hydroxyethyl)acetamide]: the IC50 is 5 to 20 µM.

On to `CN(C)[C@H]1CC[C@H](Oc2ncnc3sc4c(c23)CN(C(=O)CC2CC2)CC4)CC1` [Compound I-170, 2-cyclopropyl-1-(3-[[4-(dimethylamino)cyclohexyl]oxy]-8-thia-4,6,12-triazatricyclo[7.4.0.0̂[2,7]]trideca-1(9),2(7),3,5-tetraen-12-yl)ethan-1-one], for which the IC50 lay within 5 to 20 µM.
